Molecular target: T1, acyltransferase from M. smegmatis (MsAcT) (Mycolicibacterium smegmatis, UniProt A0R5U7)
T1 construct: gene MSMEG_6317; His6-tagged, expressed in Escherichia coli, cell-free extract
Assay: amide formation screen with cell-free extract
Type: cell-based
Conditions: co-substrate benzylamine 20 mM; ester 20 mM; buffer, 30 C

T1 sequence (A0R5U7 entry or part of it): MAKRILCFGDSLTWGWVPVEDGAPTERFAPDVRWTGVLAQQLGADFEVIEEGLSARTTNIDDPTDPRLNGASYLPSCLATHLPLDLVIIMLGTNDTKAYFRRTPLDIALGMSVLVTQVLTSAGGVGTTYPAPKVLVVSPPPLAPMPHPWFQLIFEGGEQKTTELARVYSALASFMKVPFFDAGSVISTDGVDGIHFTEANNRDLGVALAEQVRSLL

## CCOC(=O)c1ccco1 [1e, ethyl 2-furoate]
  amide formation screen with cell-free extract: MsAcT and variants displayed activity with ethyl 2-furoate 1e

From PMC11165448, “Biocatalytic Heteroaromatic Amide Formation in Water Enabled by a Catalytic Tetrad and Two Access Tunnels” (ACS Catalysis, 2024)
